Experiments:
[1] = test system: carrageenan-induced paw edema; experiment: Rat carrageenan paw edema; assay type: in vivo, Lewis rats; details: for % Inhib of Carrageenan Paw Edema 2 hr 30 mg/kg ip: 1 hr prior to carrageenan
Description: Rat Carrageenan Paw Edema
Representative compounds of the invention were tested in rat carrageenan-induced paw edema to determine their ability to inhibit this acute inflammatory response. Test compounds were administered intraperitoneally or orally to groups of seven Lewis rats (~200 gm) 1 hr prior to carrageenan administration. The test compounds were dissolved in dimethyl sulfoxide for intraperitoneal administration and dissolved or suspended in Labrafil […] for oral administration. At 0 hour, 0.1 mL of 1% carrageenan dissolved in pyrogen free […] was injected subplanetary into the right hind paw to elicit the inflammatory response. The volume (in mL) of the right hind paw was measured by immersion of the paw to the level of the lateral malleolus in an aqueous plethysmometer immediately prior to the injection of carrageenan and then at 1, 2 and 4 hr after carrageenan injection. The paw edema was calculated by subtracting the zero time reading from the readings taken after injection. The percent change of the edema volume from the vehicle treated control was calculated to determine the activity of the test compound. Statistical analysis of the mean paw edema values of the control versus the treated groups was performed using Student's t-test.

[2] = test system: croton oil-induced mouse ear edema; experiment: Croton oil mouse ear edema test; assay type: in vivo, male CD-1 mice; details: 1 mg topical, coapplied with croton oil; ear punch weight at 6 hours
Description: Croton Oil Mouse Ear Edema Test
The croton oil-induced mouse ear edema test, a model of irritant-induced contact dermatitis, has been used for evaluation of the PLA2 inhibitors by the topical route of administration. This test was carried out as described in the following references: […]
Twenty five μl of a 1% croton oil solution [dissolved in a mixture of pyridine/water/diethyl ether at a ratio of 5/20/75 (croton oil vehicle)] are applied to the outer side of the right ear of 3-4 week old male CD-1 mice (8 animals per group). The test compounds are dissolved directly in the 1% croton oil solution at various concentrations and coapplied. Control animals receive 25 μl of croton oil vehicle on the right ear. Biopsy punches are removed at 6 hours from the right ear of the animals using a 6 mm skin trephine (Roboz, Washington, D.C.) and the wet weight of the ear punches is determined. The weight of the biopsy punches is a measure of ear inflammation, primarily edema. The data are expressed as percent inhibition relative to control groups.
Statistical analysis of the mean edema values of the control versus the treated groups is performed using Student's t-test. The significance of changes from mean value for vehicle-treated animals is as follows (*p<0.05, **p<0.01, ***p<0.005, ns/not significant).

[3] = test system: adjuvant arthritis induced by Freunds complete adjuvant; details: dose 10 mg/kp ip
Description: Representative compounds of the invention were tested in the standard adjuvant arthritis model in rats, induced by Freunds complete adjuvant, as described by C.

[4] = molecular target: T1, HSF-PLA2 (extracellular PLA2 obtained from human synovial fluid) (Homo sapiens, UniProt P14555); experiment: Assay for inhibition of HSF-PLA2 in vitro; assay type: biochemical; details: read-out: % Inhib of HSF-PLA2; for inhibition at 10 µM: 10 μM test compound; for inhibition at 5 µM: 5 μM test compound
T1 construct: extracellular enzyme obtained from human synovial fluid; from tissue; host or cells: human synovial fluid (pooled)
T1 sequence (P14555 21-144): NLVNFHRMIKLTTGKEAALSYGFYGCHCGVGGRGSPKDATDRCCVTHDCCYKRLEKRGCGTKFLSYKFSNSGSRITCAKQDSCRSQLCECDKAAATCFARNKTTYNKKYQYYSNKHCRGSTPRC
Description: Assay for Inhibition of HSF-PLA2 In Vitro
The PLA2 used in this test is the extracellular enzyme obtained from human synovial fluid (HSF-PLA2).
The assay for HSF-PLA2 activity was a modification of the described method [Franson R., Dobrow R., Weiss, J., Elsbach P., and Weglick W. B., J. Lipid Res., 19, 18-23 (1978)] which was conducted using [1-^14 C]-oleate-labelled E. coli substrate in excess at a final concentration of 20,000 dpm/ml. This was equivalent to 18.2 mM of cell membrane phospholipid phosphorus and 2×10^9 autoclaved E. coli/ml. The optimal conditions which were developed for the assay of HSF-PLA2 inhibitors are summarized as follows. A total volume of 0.5 ml of reaction mixture typically had the following final composition: substrate (20,000 dpm/ml); enzyme (0.1% HSF, v/v); 2 mM CaCl2; 150 mM Na^+; 50 mM sodium HEPES buffer, pH 7.3; and 1% dimethyl sulfoxide (DMSO, used to solubilize test inhibitors) in the presence or absence of inhibitor. The reaction was initiated by the addition of HSF-PLA2 and duplicate samples of the mixture were incubated in 13×100 mm glass tubes with shaking for 30 minutes at 37° C. The reaction was terminated by the addition of 2.5 ml of chloroform-methanol (1 to 1.5, v/v). The extraction of lipids from the stopped reaction mixture was conducted by the further additions of 0.5 ml of chloroform and 1 ml of water with mixing. After centrifuging, the lower chloroform phase was transferred to smaller glass tubes and the solvent was evaporated to dryness with a nitrogen stream. The extracted lipid residue was redissolved in […] of a solution containing carrier oleic acid (0.2 mg/ml) in chloroform-methanol [9 to 1, v/v]). The whole lipid extract was applied to a preactivated (30 minutes at 110° C.) silica gel-impregnated glass fiber thin layer chromatography sheet (ITLC type SG sheet from Gelman Sciences Inc., Ann Arbor, Mich.) using hexane-acetic acid (100 to 1, v/v) as the developing solvent. This TLC system rapidly (6 minutes) resolved the enzymatically released product, ^14 C-oleic acid, from the unreacted ^14 C-phospholipid substrate. The unsaturated lipids were located on the chromatogram by a brief exposure to iodine vapor. The oleic acid zone (Rf value 0.95) and phospholipid zone (origin) were cut out, chopped into small pieces, shaken with 2 ml of ethanol-water (80 to 20, v/v) and 15 ml of Aquasol and counted for radio-activity. A control incubation of substrate in the absence of HSF-PLA2 was performed in each experiment. The PLA2 activity of the human synovial fluid was corrected for this small control value. […] The specific activity of PLA2 in the pooled human synovial fluid under the optimal assay conditions was 49.2 nmoles [1-^14 C]-oleic aid released hour^-1 mg^-1. The IC50 (μM concentration of test compound that produces 50% inhibition of PLA2 activity) was determined for each test compound.

[5] = test system: TPA-induced mouse ear edema; experiment: TPA induced mouse ear edema test; assay type: in vivo, male CD-1 mice; details: for % Inhib of TPA Mouse Ear Edema (1 mg) / % Inhib of Myeloperoxidase Mouse Ear Edema (1 mg): 1 mg topical
Description: TPA Induced Mouse Ear Edema Test
The TPA-induced mouse ear edema test, a model of irritant-induced contact dermatitis is described in the following reference: J. M. Young, B. M. Wagner and D. A. Spires, J. Invest. Dermatology 80, 48-52 (1983).
For this test, 10 μl of 12-O-tetradecanoylphorbol-13-acetate (TPA), dissolved in a vehicle of pyridine: water: diethylether (20:5:75), was applied to the outside of the right ear of 3-4 week old male CD-1 mice (8 animals per group). The test compounds were dissolved in the same vehicle and 10 μl was applied to the inside of the same ear 30 minutes prior to the application of TPA. Ear punches (6 mm) were removed at 6 hours after TPA application, weighed and assayed for myeloperoxidase (MPO) activity as described in the following reference: P. P. Bradley, D. A. Priebat, R. D. Christensen and G. Rothstein, J. Invest. Dermatology 78, 206-209 (1982). The wet weight of the ear biopsy punches is a measure of the ear edema and the level of MPO activity in the ear punches is an indicator of neutrophil infiltration. The data are expressed as percent inhibition in drug-treatedanimals relative to the control group. Table II sets forth the percentage inhibition of edema by representative compounds of the invention in this test. Table III sets forth the percentage inhibition of myeloperoxidase by representative compounds of the invention in this test.

[6] = 30 minutes prior to TPA, ear punch weight at 6 hours
[7] = MPO activity in ear punches 6 hours after TPA

Q: With `CCCCCCCCCCCCCCCCCCOc1ccc(C(=O)C(=O)N(CC(=O)O)CC(=O)O)cc1` [Example 65, N-(Carboxymethyl)-N-[2-[4-(octadecyloxy)phenyl]-1,2-dioxoethyl]glycine] as the compound, how does the “% Inhib of Carrageenan Paw Edema 2 hr 30 mg/kg ip” value [1] read?
A: 71%

Q: What about the “% Inhib of Croton Oil Mouse Ear Edema (1 mg)” value [2] of the same compound?
A: 44%

Q: And the “Change in Paw Volume in ml, Treated” value [3]?
A: -0.07 ± 0.08 mL

Q: What about the inhibition at 1 µM ([4]; 1 μM test compound) of the same compound?
A: 74%

Q: How did the “% Inhib of TPA Mouse Ear Edema (1 mg)” value [5, 6] turn out when `CCCCCCCCCCCCCCCCCCOc1ccc(OCCCc2ccccc2)c(C(=O)N(CC(=O)O)CC(=O)O)c1` [Example 95, N-(Carboxymethyl)-N-[5-(octadecyloxy)-2-(3-phenylpropoxy)benzoyl]glycine] was run?
A: 55%

Q: What about the inhibition at 10 µM [4] of the same compound?
A: 71%

Q: For `CCCCCCCCCCOc1cc(OCCCCCCCCCC)cc(C(=O)C(=O)N(CC(=O)O)CC(=O)O)c1` [Example 73, N-(Carboxymethyl)-N-[[3,5-bis(decyloxy)phenyl]-1,2-dioxoethyl]glycine], which “% Inhib of Carrageenan Paw Edema 2 hr 30 mg/kg ip” value [1] is on record?
A: 56%

Q: And the inhibition at 5 µM [4]?
A: 62%

Q: `O=C(O)CN(CC(=O)O)C(=O)c1cc(OCCCCCCCCCCCCOc2ccccc2)ccc1OCc1ccccc1` [Example 110, N-(Carboxymethyl)-N-[5-[(12-phenoxydodecyl)oxy]-2-(phenylmethoxy)benzoyl]glycine] was tested. Which “% Inhib of TPA Mouse Ear Edema (1 mg)” value [5, 6] did it give?
A: 57%

Q: And the inhibition at 10 µM [4]?
A: 61%

Q: What does the source list for `O=C(O)CN(CC(=O)O)C(=O)C(=O)c1ccc(OCCCCCCCCCCCCOc2ccccc2)cc1` [Example 114, N-(Carboxymethyl)-N-[1,2-dioxo-2-[4-[(12-phenoxydodecyl)oxy]phenyl]ethyl]glycine]?
A: % Inhib of TPA Mouse Ear Edema (1 mg) [5, 6]: 37%; inhibition at 10 µM [4]: 35%

Q: `O=C(O)CN(CC(=O)O)C(=O)c1cc(OCCCCCCOc2ccc(-c3ccccc3)cc2)ccc1OCc1ccccc1` [Example 105, N-[5-[[6-([1,1'-biphenyl]-4-yloxy)hexyl]oxy]-2-(phenylmethoxy)benzoyl]-N-(carboxymethyl)glycine] was tested. Which “% Inhib of TPA Mouse Ear Edema (1 mg)” value [5, 6] did it give?
A: 67%

Q: And the inhibition at 10 µM [4]?
A: 38%

Q: Which “% Inhib of Carrageenan Paw Edema 2 hr” value ([1]; 100 mg/kg po) does the source give for `CCCCCCCCCCCCCC(=O)Nc1cc(NC(=O)CCCCCCCCCCCCC)cc(C(=O)N(CC(=O)O)CC(=O)O)c1` [Example 56, N-(Carboxymethyl)-N-[3,5-bis(1-oxotetradecylamino)benzoyl]glycine] here?
A: 26%

Q: For `CCCCCCCCCCOc1ccc(OCc2ccccc2)c(C(=O)N(CC(=O)O)CC(=O)O)c1` [Example 91, N-(Carboxymethyl)-N-[5-(decyloxy)-2-(phenylmethoxy)benzoyl]glycine], which “% Inhib of TPA Mouse Ear Edema (1 mg)” value [5, 6] is on record?
A: 59%

Q: What about the “% Inhib of Myeloperoxidase Mouse Ear Edema (1 mg)” value [5, 7] of the same compound?
A: 78%

Q: What about the inhibition at 10 µM [4] of the same compound?
A: 70%

Q: Which results are given for `CCCCCCCCCCCCCCCCCCOc1ccc(OCc2ccccc2)c(C(=O)N(CC(=O)O)CC(=O)O)c1` [Example 81, N-(Carboxymethyl)-N-[5-(octadecyloxy)-2-(phenylmethoxy)benzoyl]glycine]?
A: % Inhib of TPA Mouse Ear Edema ([5]; 0.3 mg topical, 30 minutes prior to TPA, ear punch weight at 6 hours): 60%; % Inhib of Myeloperoxidase Mouse Ear Edema ([5]; 0.3 mg topical, MPO activity in ear punches 6 hours after TPA): 75%; % Inhib of Croton Oil Mouse Ear Edema (1 mg) [2]: 74%; inhibition at 5 µM [4]: 42%

Q: With `CCCCCCCCCCCCCCCCCCOc1ccc(OCCCOc2ccc(O)cc2)c(C(=O)N(CC(=O)O)CC(=O)O)c1` [Example 100] as the compound, how does the “% Inhib of TPA Mouse Ear Edema (1 mg)” value [5, 6] read?
A: 65%

Q: And the inhibition at 10 µM [4]?
A: 77%

Q: `CCCCCCCCCCCCCCCCCCOc1ccc(OCCCOc2ccc(OCc3ccccc3)cc2)c(C(=O)N(CC(=O)O)CC(=O)O)c1` [Example 99, N-(Carboxymethyl)-N-[5-(octadecyloxy)-2-[3-[4-(phenylmethoxy)phenoxy]propoxy]benzoyl]glycine] was tested. Which “% Inhib of TPA Mouse Ear Edema (1 mg)” value [5, 6] did it give?
A: 50%

Q: And the inhibition at 10 µM [4]?
A: 86%

Q: For `CCCCCCCCCCCCCCCCCCOc1cc(OCCOCCOCCOCC)cc(C(=O)N(CC(=O)O)CC(=O)O)c1` [Example 48, N-(carboxymethyl)-N-[3-[2-[2-(2-ethoxyethoxy)ethoxy]ethoxy]-(5-octadecyloxy)benzoyl]glycine], which “% Inhib of Carrageenan Paw Edema 2 hr 30 mg/kg ip” value [1] is on record?
A: 76%

Q: What about the “% Inhib of Croton Oil Mouse Ear Edema (1 mg)” value [2] of the same compound?
A: 19%

Q: And the inhibition at 5 µM [4]?
A: 36%

Q: With `CCCCCCCCCCCCCCOc1ccc(OCc2ccccc2)c(C(=O)N(CC(=O)O)CC(=O)O)c1` [Example 86, N-(Carboxymethyl)-N-[5-(tetradecyloxy)-2-(phenylmethoxy)benzoyl]glycine] as the compound, how does the “% Inhib of TPA Mouse Ear Edema (1 mg)” value [5, 6] read?
A: 47%

Q: What about the “% Inhib of Myeloperoxidase Mouse Ear Edema (1 mg)” value [5, 7] of the same compound?
A: 63%

Q: What about the inhibition at 10 µM [4] of the same compound?
A: 70%

Q: How did the “% Inhib of Carrageenan Paw Edema 2 hr” value ([1]; 50 mg/kg) turn out when `CCCCCCCCCCOc1cc(OCCCCCCCCCC)cc(C(=O)N(CC(=O)O)CC(=O)O)c1` [Example 11, N-(Carboxymethyl)-N-[3,5-bis(decyloxy)benzoyl]glycine] was run?
A: 50%

Q: What about the “% Inhib of Croton Oil Mouse Ear Edema (1 mg)” value [2] of the same compound?
A: 70%

Q: And the inhibition at 6 µM ([4]; 6 μM test compound)?
A: 50%

— patent US5298652A, “N-substituted glycines, inhibitors of phospholipase A2” (Hoffmann-La Roche Inc., priority 1992, dated 1994)
